Reference: PMC10959927, “Platinum iodido drugs show potential anti-tumor activity, affecting cancer cell metabolism and inducing ROS and senescence in gastrointestinal cancer cells” (Communications Biology, 2024)
Values joined by “and” are separate entries in the source; they are usually repeats but may differ in a detail not shown here. Equal values may be shown once.

What was measured:
Format in all cases: cell-based, human
MKN45 cells [1] = assay: Immunofluorescence of γ-H2AX foci; details: Fig. 3B; for foci/cell, number of cells in class: cell count
Experimental: Cells (7 × 10^4) were seeded on 20 mm coverslips. […] Coverslips were incubated for 1 h with the primary antibody (Cell Signaling: H2AX Ser139 (#2595) and 53BP1 (#4937)) at room temperature, followed by a 1 h incubation with the appropriate secondary antibody. DNA was stained with DAPI. Fluorescence microscopy was performed using a NIKON Eclipse 90i. The image analysis was performed using the software program Nikon NIS-Elements and Image J.

AGS cells [2] = assay: Clonogenic (CFU) assay with or without NAC; details: 10 days
Experimental: (§1) For the clonogenic assay we used two different approaches. […] Then, cells were cultured in a 6-well plate at a very low concentration (2 × 10^3 cells per well) and incubated for 10 days. […] To evaluate the role of ROS in cell proliferation, we supplemented the growth medium with 0.5 mM NAC. After 10 days, the cells were fixed with 1% glutaraldehyde and stained with 0.1% crystal violet. The number of colonies was quantified directly and reflected as CFUs: Colony Forming Units.

MKN45 cells [3] = assay: Clonogenic (CFU) assay with or without NAC; details: 10 days
Experimental: as §1

AGS cells [4] = assay: SA-β-Gal histochemical staining; details: Fig. S4A
Experimental: SA-β-Gal activity was measured following two different approaches. (i) AGS, MKN45 and PANC1 cells (5 × 10^4) were seeded in 24-multiwell dishes and incubated overnight. […] For flow cytometry cell senescence detection, cells were tripsinized, fixed for 15 min with PFA 4% and stained with the CellEvent Senescense Green Flow Cytometry Assay Kit (C10840, Invitrogen) according to manufacturer’s instructions. CellEvent Senescense Green Probe was used at a 1:500 dilution and fluorescence was detected using the filter (Ex488nm/Em530/30) BL1 with a 4-laser Attune NxT Acoustic Cytometer (Thermo Fisher Scientific). […] After 3 h, the treatments were removed, new supplemented medium was added, and cells were incubated for an additional 24 h. Finally, SA-β-Gal staining was performed using the Senescence Cells Histochemical Staining Kit (CS0030-1KT) according to the manufacturer’s instructions.

AGS cells [5] = assay: Western blotting (p-p53, p-JNK, p-p38, p-ERK, p-CHK1/2, Mcl1, BID, BAX); details: for fold change p-ERK vs Tubulin / fold change p-JNK vs Tubulin / fold change p-p38 vs Tubulin / fold change p-p53 vs Tubulin: Fig. 4A, replicate values; for fold change BAX vs Tubulin / fold change BID full length vs Tubulin / fold change MCL1 vs Tubulin: Fig. S3B
Experimental: (§2) Total protein extracts were obtained by adding the lysis buffer: 25 mM HEPES pH 7.5, 0.3 M NaCl, 1.5 mM MgCl2, 0.2 mM EDTA, 0.5 mM DTT, 20 mM β-glicerophosphate, 0.1 mM Na3VO4, 0.1% triton X-100; in the presence of protease inhibitors. Twenty μg of protein per sample were loaded and resolved using 8%, 10% or 15% SDS-PAGE polyacrylamide gels, and then transferred onto PVDF membranes, followed by immunodetection using appropriate antibodies, purchased from Santa Cruz Technology: Mcl-1 (sc-819), Cell Signaling Technology: BIM, BID, BAX (#9942), p-p38 (1:2000, #4631), p-p53^ser15 (#9284), p-ERK1/2 (1:2000, #9106), p-CHK1^ser345 and p-CHK2^ser19 (#9931), Promega Corporation-Spain: p-JNK (#V7932), or Sigma-Aldrich: α-tubulin (1:10000, #TP026). Unless indicated, all antibodies were diluted 1:1000. Secondary antibodies conjugated with horseradish peroxidase were purchased from BioRad, and chemiluminescence detection was performed using ECL (Santa Cruz Biotechnology).

PANC1 cells [6] = assay: as above; details: for fold change BAX vs Tubulin / fold change MCL1 vs Tubulin: Fig. S3B; for fold change p-ERK vs Tubulin / fold change p-JNK vs Tubulin / fold change p-p38 vs Tubulin / fold change p-p53 vs Tubulin: PANC1, Fig. 4A, replicate values
Experimental: as §2

AGS cells [7] = assay: Ratio GSH/GSSG, colorimetric kit
Experimental: (§3) GSH and GSSG levels were determined in AGS and PANC1 cells after 3 and 24 h of treatment with the compounds (using H2O2 as a positive control) with the Glutathione Colorimetric Detection Kit (ThermoFisher) following the manufacturer’s instructions. Thirty minutes after adding the Colorimetric Detection Reagent and the Reaction Mixture, the absorbance was read at 405 nm. A standard curve was generated with each assay to interpolate the sample results. To measure GSSG, standards and samples must be diluted with the Sample Diluent containing 2-vinylpyridine.

PANC1 cells [8] = assay: Ratio GSH/GSSG, colorimetric kit
Experimental: as §3

CC(C)[NH][Pt@SP1]([I])([I])[NH]C(C)C [I6, cis-[PtI2(isopropylamine)2]]
foci/cell, share of cells in class (Suma 100) (MKN45 cells [1]; class 16-30 foci/cell): 16.6667
foci/cell, number of cells in class (MKN45 cells [1]; class 16-30 foci/cell): 7
foci/cell, share of cells in class (Suma 100) (MKN45 cells [1]; class 31-45 foci/cell): 14.2857
foci/cell, number of cells in class (MKN45 cells [1]; class 31-45 foci/cell): 6
foci/cell, share of cells in class (Suma 100) (MKN45 cells [1]; class 46-60 foci/cell): 23.8095
foci/cell, number of cells in class (MKN45 cells [1]; class 46-60 foci/cell): 10
foci/cell, share of cells in class (Suma 100) (MKN45 cells [1]; class <15 foci/cell): 11.9048
foci/cell, number of cells in class (MKN45 cells [1]; class <15 foci/cell): 5
foci/cell, share of cells in class (Suma 100) (MKN45 cells [1]; class >61 foci/cell): 33.3333
foci/cell, number of cells in class (MKN45 cells [1]; class >61 foci/cell): 14
colonies (CFUs), mean ± SD (AGS cells [2]; AGS + NAC 0.5 mM, IC25 concentration): 613 ± 89
colonies (CFUs), mean ± SD (AGS cells [2]; AGS + NAC 0.5 mM, IC50 concentration): 329 ± 152
colonies (CFUs), mean ± SD (AGS cells [2]; AGS, IC25 concentration, no NAC): 268 ± 63
colonies (CFUs), mean ± SD (AGS cells [2]; AGS, IC50 concentration, no NAC): 0
colonies (CFUs), mean ± SD (MKN45 cells [3]; MKN45 + NAC 0.5 mM, IC25 concentration): 526 ± 93
colonies (CFUs), mean ± SD (MKN45 cells [3]; MKN45 + NAC 0.5 mM, IC50 concentration): 46 ± 2
colonies (CFUs), mean ± SD (MKN45 cells [3]; MKN45, IC25 concentration, no NAC): 1 ± 1.7
colonies (CFUs), mean ± SD (MKN45 cells [3]; MKN45, IC50 concentration, no NAC): 0
Fold change % Senescence (AGS cells [4]): 49.02% and 67.7% and 53.18%
activation of p53 (p-p53 western blot) (AGS cells [5]; IC50, 1, 3, 6 and 24 h): did not activate p53
phosphorylation of CHK1/2 (DDR pathway, western blot) (AGS cells [5]; IC50, 1, 3, 6 or 24 h): did not activate
fold change p-ERK vs Tubulin (AGS cells [5]; Time 1 h): 2.604 fold change and 2.955 fold change and 1.91 fold change
fold change p-JNK vs Tubulin (AGS cells [5]; Time 1 h): 1.478 fold change and 1.305 fold change and 1.607 fold change
fold change p-p38 vs Tubulin (AGS cells [5]; Time 1 h): 1.462 fold change and 1.894 fold change and 2.196 fold change
fold change p-p53 vs Tubulin (AGS cells [5]; Time 1 h): 0.562 fold change and 0.6997 fold change and 1.25 fold change
fold change p-ERK vs Tubulin (AGS cells [5]; Time 3 h): 1.3326 fold change and 1.834 fold change and 1.749 fold change
fold change p-JNK vs Tubulin (AGS cells [5]; Time 3 h): 0.8249 fold change and 0.7387 fold change and 1.623 fold change
fold change p-p38 vs Tubulin (AGS cells [5]; Time 3 h): 1.1118 fold change and 2.258 fold change and 0.7258 fold change
fold change p-p53 vs Tubulin (AGS cells [5]; Time 3 h): 0.3925 fold change and 0.7056 fold change and 1.358 fold change
fold change p-ERK vs Tubulin (AGS cells [5]; Time 6 h): 1.495 fold change and 1.997 fold change and 1.556 fold change
fold change p-JNK vs Tubulin (AGS cells [5]; Time 6 h): 0.7672 fold change and 1.335 fold change and 1.232 fold change
fold change p-p38 vs Tubulin (AGS cells [5]; Time 6 h): 1.675 fold change and 3.507 fold change and 1.086 fold change
fold change p-p53 vs Tubulin (AGS cells [5]; Time 6 h): 0.5607 fold change and 0.7436 fold change and 1.621 fold change
fold change p-ERK vs Tubulin (AGS cells [5]; Time 24 h): 0.7805 fold change and 2.6246 fold change and 1.218 fold change
fold change p-JNK vs Tubulin (AGS cells [5]; Time 24 h): 0.8639 fold change and 0.8519 fold change and 1.138 fold change
fold change p-p38 vs Tubulin (AGS cells [5]; Time 24 h): 2.641 fold change and 0.9281 fold change and 1.316 fold change
fold change p-p53 vs Tubulin (AGS cells [5]; Time 24 h): 0.6954 fold change and 1.1071 fold change and 1.226 fold change
fold change BAX vs Tubulin (AGS cells [5]; time 1 h): 1.29 fold change and 0.734 fold change and 1.017 fold change
fold change BID full length vs Tubulin (AGS cells [5]; time 1 h): 0.722 fold change and 1.325 fold change and 0.67 fold change
fold change MCL1 vs Tubulin (AGS cells [5]; time 1 h): 0.493 fold change and 0.586 fold change and 0.597 fold change
fold change BAX vs Tubulin (AGS cells [5]; time 3 h): 0.759 fold change and 1.497 fold change and 1.286 fold change
fold change BID full length vs Tubulin (AGS cells [5]; time 3 h): 1.126 fold change and 1.525 fold change and 0.803 fold change
fold change MCL1 vs Tubulin (AGS cells [5]; time 3 h): 0.592 fold change and 1.105 fold change and 0.81 fold change
fold change BAX vs Tubulin (AGS cells [5]; time 6 h): 1.353 fold change and 1.942 fold change and 1.061 fold change
fold change MCL1 vs Tubulin (AGS cells [5]; time 6 h): 0.911 fold change and 1.666 fold change and 1.549 fold change
fold change BID full length vs Tubulin (AGS cells [5]; time 24 h): 1.406 fold change and 1.917 fold change and 1.97 fold change
activation of p53 (p-p53 western blot) (PANC1 cells [6]; PANC1, IC50, 1, 3, 6 and 24 h): did not activate p53
phosphorylation of CHK1/2 (DDR pathway, western blot) (PANC1 cells [6]; PANC1, IC50, 1, 3, 6 or 24 h): did not activate
fold change BAX vs Tubulin (PANC1 cells [6]; PANC1, time 1 h): 1.132 fold change and 1.289 fold change and 1.219 fold change
fold change MCL1 vs Tubulin (PANC1 cells [6]; PANC1, time 1 h): 0.6156 fold change and 0.9493 fold change and 1.031 fold change
fold change BAX vs Tubulin (PANC1 cells [6]; PANC1, time 3 h): 1.6811 fold change and 1.471 fold change and 1.573 fold change
fold change BAX vs Tubulin (PANC1 cells [6]; PANC1, time 6 h): 1.615 fold change and 2.78 fold change and 2.056 fold change
fold change MCL1 vs Tubulin (PANC1 cells [6]; PANC1, time 6 h): 1.135 fold change and 2.241 fold change and 1.84 fold change
fold change BAX vs Tubulin (PANC1 cells [6]; PANC1, time 24 h): 2.639 fold change and 1.942 fold change and 1.489 fold change
fold change p-ERK vs Tubulin (PANC1 cells [6]; Time 1 h): 1.209 fold change and 3.621 fold change and 2.27 fold change
fold change p-JNK vs Tubulin (PANC1 cells [6]; Time 1 h): 1.809 fold change and 1.288 fold change and 3.68 fold change
fold change p-p38 vs Tubulin (PANC1 cells [6]; Time 1 h): 2.603 fold change and 1.024 fold change and 1.89 fold change
fold change p-p53 vs Tubulin (PANC1 cells [6]; Time 1 h): 0.76 fold change and 1.24 fold change and 0.65 fold change
fold change p-ERK vs Tubulin (PANC1 cells [6]; Time 3 h): 0.5754 fold change and 1.698 fold change and 1.17 fold change
fold change p-JNK vs Tubulin (PANC1 cells [6]; Time 3 h): 0.5257 fold change and 0.2509 fold change and 3.356 fold change
fold change p-p38 vs Tubulin (PANC1 cells [6]; Time 3 h): 1.159 fold change and 1.033 fold change and 1.07 fold change
fold change p-p53 vs Tubulin (PANC1 cells [6]; Time 3 h): 0.78 fold change and 1.36 fold change and 1.16 fold change
fold change p-ERK vs Tubulin (PANC1 cells [6]; Time 6 h): 0.6008 fold change and 2.546 fold change and 1.66 fold change
fold change p-JNK vs Tubulin (PANC1 cells [6]; Time 6 h): 0.6321 fold change and 0.3554 fold change and 4.716 fold change
fold change p-p38 vs Tubulin (PANC1 cells [6]; Time 6 h): 0.976 fold change and 1.156 fold change and 1.0897 fold change
fold change p-p53 vs Tubulin (PANC1 cells [6]; Time 6 h): 1.01 fold change and 0.69 fold change and 0.99 fold change
fold change p-ERK vs Tubulin (PANC1 cells [6]; Time 24 h): 0.4409 fold change and 1.892 fold change and 1.09 fold change
fold change p-JNK vs Tubulin (PANC1 cells [6]; Time 24 h): 0.5968 fold change and 0.8335 fold change and 2.596 fold change
fold change p-p38 vs Tubulin (PANC1 cells [6]; Time 24 h): 1.91 fold change and 1.31 fold change and 1.357 fold change
fold change p-p53 vs Tubulin (PANC1 cells [6]; Time 24 h): 2.28 fold change and 1.99 fold change and 1.04 fold change
GSH/GSSG (AGS cells [7]; AGS, 3, relative to Control = 1): 0.7708 and 0.7765 and 0.8015
GSH/GSSG (AGS cells [7]; AGS, 24, relative to Control = 1): 0.964 and 0.9646 and 1.003
GSH/GSSG (PANC1 cells [8]; PANC1, 3, relative to Control = 1): 0.8833 and 0.8858 and 1.064
GSH/GSSG (PANC1 cells [8]; PANC1, 24, relative to Control = 1): 0.52 and 0.6511 and 0.6572
